Converted amounts (≈) assume the structure as drawn. Where two headings read alike, the source gives them in different places. Where a SMILES comes first, the peptide text is derived from it. Bridges are numbered along the chain shown (N, C = ends).
Tests used:
S. pneumoniae ATCC6305 = assay: MIC assays under standard conditions; assay type: cell-based, Streptococcus pneumoniae; conditions: Supplementary Table 1, cation-adjusted MHB + 5% lysed horse blood, 5% CO2, 20–24 h
Experimental: (§1) Plectasin and analogues were serially diluted in cation-adjusted Mueller–Hinton broth (MHB) in round-bottom polypropylene 96-well plates (50 µl per well). Selected bacterial strains were grown from glycerol stocks on blood agar plates. Individual colonies were inoculated in TSB and incubated at 37 °C while shaking until OD600 reached 0.5. Bacterial suspensions were then diluted 100 times in cation-adjusted MHB and distributed (50 μl per well) over the microplate containing the diluted plectasin solutions. Plates were covered by a gas-permeable adhesive membrane and incubated at 37 °C while shaking. MICs were determined by visual inspection after 16–20 h (Staphylococcus) or 20–24 h (Streptococcus). For Streptococcus strains, the broth was additionally supplemented with 5% lysed horse blood, and the microplates were incubated under 5% CO2 atmosphere. In the assays, we used the following strains: S. simulans, S. pneumoniae serotype 8, S. pneumoniae ATCC6305 and Streptococcus pyogenes M3.

S. simulans 22 = assay: MIC assays under standard conditions; assay type: cell-based, Staphylococcus simulans; conditions: for Minimum inhibitory concentration, S. simulans / MIC: cation-adjusted MHB, 37 °C; for MIC: Staphylococcus simulans, 22
Experimental: as §1

SMILES	Minimum inhibitory concentration, S. pneumoniae ATCC6305 (S. pneumoniae ATCC6305)	Minimum inhibitory concentration, S. simulans (S. simulans 22; Supplementary Table 1, 16–20 h)	reduction in activity vs plectasin (S. simulans 22; from MIC of Table 1)	MIC (S. pneumoniae ATCC6305; Streptococcus pneumoniae, ATCC6305, read-out: Minimum inhibitory concentration, S. pneumoniae ATCC6305) [µg/mL]	MIC (S. simulans 22; Supplementary Table 1, 16–20 h, read-out: Minimum inhibitory concentration, S. simulans) [µg/mL]	MIC (S. simulans 22; standard conditions, visual inspection after 16–20 h, read-out: MIC) [µg/mL]
CSCC[C@@H]1NC(=O)[C@H](CC(=O)O)NC(=O)[C@H](CC(=O)O)NC(=O)[C@H](CCC(=O)O)NC(=O)[C@H](CC(=O)O)NC(=O)[C@H](Cc2c[nH]c3ccccc23)NC(=O)[C@@H]2CCCN2C(=O)CNC(=O)[C@H](CC(N)=O)NC(=O)[C@@H](NC(=O)CNC(=O)[C@H](Cc2ccccc2)NC(=O)CN)CSSC[C@@H]2NC(=O)[C@H](Cc3ccc(O)cc3)NC(=O)CNC(=O)CNC(=O)[C@H](CCCCN)NC(=O)[C@H](Cc3ccc(O)cc3)NC(=O)CNC(=O)[C@H](CCCCN)NC(=O)[C@H](CCCCN)NC(=O)[C@H](CO)NC(=O)[C@H](CCCCN)NC(=O)[C@@H]3CSSC[C@@H](C(=O)N[C@@H](Cc4ccc(O)cc4)C(=O)O)NC(=O)[C@H](CCCCN)NC(=O)[C@H](CSSC[C@H](NC(=O)[C@H](CCC(N)=O)NC1=O)C(=O)N[C@@H](Cc1c[nH]cn1)C(=O)N[C@@H](CC(N)=O)C(=O)N[C@@H](Cc1c[nH]cn1)C(=O)N3)NC(=O)[C@H](C(C)C)NC(=O)[C@H](Cc1ccccc1)NC(=O)CNC(=O)CNC(=O)[C@H](CCCCN)NC(=O)[C@H](C)NC2=O [I22K] (H-GFGCNGPWDEDDMQCHNHCKSKKGYKGGYCAKGGFVCKCY-OH; disulfide 4-30, 15-37, 19-39 (inferred); N-terminus and C-terminus assumed)	> 50 µg/mL	> 50 µg/mL	–	–	–	–
CC[C@H](C)[C@@H]1NC(=O)[C@H](CO)NC(=O)[C@H](CCCCN)NC(=O)[C@@H]2CSSC[C@@H](C(=O)N[C@@H](Cc3ccc(O)cc3)C(=O)O)NC(=O)[C@H](CCCCN)NC(=O)[C@@H]3CSSC[C@H](NC(=O)[C@H](CCC(N)=O)NC(=O)[C@H](CCSC)NC(=O)[C@H](CC(=O)O)NC(=O)[C@H](CC(=O)O)NC(=O)[C@H](CCC(=O)O)NC(=O)[C@H](CC(=O)O)NC(=O)[C@H](Cc4c[nH]c5ccccc45)NC(=O)[C@@H]4CCCN4C(=O)CNC(=O)[C@H](CC(N)=O)NC(=O)[C@@H](NC(=O)CNC(=O)[C@H](Cc4ccccc4)NC(=O)CN)CSSC[C@H](NC(=O)[C@H](Cc4ccc(O)cc4)NC(=O)CNC(=O)CNC(=O)[C@H](C)NC(=O)[C@H](Cc4ccc(O)cc4)NC(=O)CNC(=O)[C@H](CCCCN)NC1=O)C(=O)N[C@@H](C)C(=O)N[C@@H](CCCCN)C(=O)NCC(=O)NCC(=O)N[C@@H](Cc1ccccc1)C(=O)N[C@@H](C(C)C)C(=O)N3)C(=O)N[C@@H](Cc1c[nH]cn1)C(=O)N[C@@H](CC(N)=O)C(=O)N[C@@H](Cc1c[nH]cn1)C(=O)N2 [K26A] (H-GFGCNGPWDEDDMQCHNHCKSIKGYAGGYCAKGGFVCKCY-OH; disulfide 4-30, 15-37, 19-39 (inferred); N-terminus and C-terminus assumed)	3,13 μg/mL	3,13 μg/mL	fivefold to tenfold	–	–	–
CC[C@H](C)[C@@H]1NC(=O)[C@H](CO)NC(=O)[C@H](CCCCN)NC(=O)[C@@H]2CSSC[C@@H](C(=O)N[C@@H](Cc3ccc(O)cc3)C(=O)O)NC(=O)[C@H](CCCCN)NC(=O)[C@@H]3CSSC[C@H](NC(=O)[C@H](CCC(N)=O)NC(=O)[C@H](CCSC)NC(=O)[C@H](CC(=O)O)NC(=O)[C@H](CC(=O)O)NC(=O)[C@H](CCC(=O)O)NC(=O)[C@H](CC(=O)O)NC(=O)[C@H](Cc4c[nH]c5ccccc45)NC(=O)[C@@H]4CCCN4C(=O)CNC(=O)[C@H](CC(N)=O)NC(=O)[C@@H](NC(=O)CNC(=O)[C@H](Cc4ccccc4)NC(=O)CN)CSSC[C@H](NC(=O)[C@H](Cc4ccc(O)cc4)NC(=O)CNC(=O)CNC(=O)[C@H](CCCNC(=N)N)NC(=O)[C@H](Cc4ccc(O)cc4)NC(=O)CNC(=O)[C@H](CCCCN)NC1=O)C(=O)N[C@@H](C)C(=O)N[C@@H](CCCCN)C(=O)NCC(=O)NCC(=O)N[C@@H](Cc1ccccc1)C(=O)N[C@@H](C(C)C)C(=O)N3)C(=O)N[C@@H](Cc1c[nH]cn1)C(=O)N[C@@H](CC(N)=O)C(=O)N[C@@H](Cc1c[nH]cn1)C(=O)N2 [K26R] (H-GFGCNGPWDEDDMQCHNHCKSIKGYRGGYCAKGGFVCKCY-OH; disulfide 4-30, 15-37, 19-39 (inferred); N-terminus and C-terminus assumed)	1,56 μg/mL	≤ 0.78 µg/mL	–	–	–	–
CN[C@H](CC(C)C)C(=O)N[C@H]1C(=O)N[C@@H](CC(N)=O)C(=O)N[C@H]2C(=O)N[C@H]3C(=O)N[C@H](C(=O)N[C@H](C(=O)O)c4cc(O)cc(O)c4-c4cc3ccc4O)[C@H](O)c3ccc(c(Cl)c3)Oc3cc2cc(c3O[C@@H]2O[C@H](CO)[C@@H](O)[C@H](O)[C@H]2O[C@H]2C[C@](C)(N)[C@H](O)[C@H](C)O2)Oc2ccc(cc2Cl)[C@H]1O [Vancomycin, reference compound]	–	–	–	< 0.78	0.78 (≈ 0.538 µM)	0.78 (≈ 0.538 µM)
CC[C@H](C)[C@@H]1NC(=O)[C@H](CO)NC(=O)[C@H](CCCCN)NC(=O)[C@@H]2CSSC[C@@H](C(=O)N[C@@H](Cc3ccc(O)cc3)C(=O)O)NC(=O)[C@H](CCCCN)NC(=O)[C@@H]3CSSC[C@H](NC(=O)[C@H](CCC(N)=O)NC(=O)[C@H](CCSC)NC(=O)[C@H](CC(=O)O)NC(=O)[C@H](CC(=O)O)NC(=O)[C@H](CCC(=O)O)NC(=O)[C@H](CC(=O)O)NC(=O)[C@H](Cc4c[nH]c5ccccc45)NC(=O)[C@@H]4CCCN4C(=O)CNC(=O)[C@H](CC(N)=O)NC(=O)[C@@H](NC(=O)CNC(=O)[C@H](Cc4ccccc4)NC(=O)CN)CSSC[C@H](NC(=O)[C@H](Cc4ccc(O)cc4)NC(=O)CNC(=O)CNC(=O)[C@H](CCCCN)NC(=O)[C@H](Cc4ccccc4)NC(=O)CNC(=O)[C@H](CCCCN)NC1=O)C(=O)N[C@@H](C)C(=O)N[C@@H](CCCCN)C(=O)NCC(=O)NCC(=O)N[C@@H](Cc1ccccc1)C(=O)N[C@@H](C(C)C)C(=O)N3)C(=O)N[C@@H](Cc1c[nH]cn1)C(=O)N[C@@H](CC(N)=O)C(=O)N[C@@H](Cc1c[nH]cn1)C(=O)N2 [Y25F] (H-GFGCNGPWDEDDMQCHNHCKSIKGFKGGYCAKGGFVCKCY-OH; disulfide 4-30, 15-37, 19-39 (inferred); N-terminus and C-terminus assumed)	3,125 μg/mL	1,56 μg/mL	–	–	–	–
CC[C@H](C)[C@@H]1NC(=O)[C@H](CO)NC(=O)[C@H](CCCCN)NC(=O)[C@@H]2CSSC[C@@H](C(=O)N[C@@H](Cc3ccc(O)cc3)C(=O)O)NC(=O)[C@H](CCCCN)NC(=O)[C@@H]3CSSC[C@H](NC(=O)[C@H](CCC(N)=O)NC(=O)[C@H](CCSC)NC(=O)[C@H](CC(=O)O)NC(=O)[C@H](CC(=O)O)NC(=O)[C@H](CCC(=O)O)NC(=O)[C@H](CC(=O)O)NC(=O)[C@H](Cc4c[nH]c5ccccc45)NC(=O)[C@@H]4CCCN4C(=O)CNC(=O)[C@H](CC(N)=O)NC(=O)[C@@H](NC(=O)CNC(=O)[C@H](Cc4ccccc4)NC(=O)CN)CSSC[C@H](NC(=O)[C@H](C)NC(=O)CNC(=O)CNC(=O)[C@H](CCCCN)NC(=O)[C@H](Cc4ccc(O)cc4)NC(=O)CNC(=O)[C@H](CCCCN)NC1=O)C(=O)N[C@@H](C)C(=O)N[C@@H](CCCCN)C(=O)NCC(=O)NCC(=O)N[C@@H](Cc1ccccc1)C(=O)N[C@@H](C(C)C)C(=O)N3)C(=O)N[C@@H](Cc1c[nH]cn1)C(=O)N[C@@H](CC(N)=O)C(=O)N[C@@H](Cc1c[nH]cn1)C(=O)N2 [Y29A] (H-GFGCNGPWDEDDMQCHNHCKSIKGYKGGACAKGGFVCKCY-OH; disulfide 4-30, 15-37, 19-39 (inferred); N-terminus and C-terminus assumed)	> 50 µg/mL	12,5 μg/mL	–	–	–	–
CC[C@H](C)[C@@H]1NC(=O)[C@H](CO)NC(=O)[C@H](CCCCN)NC(=O)[C@@H]2CSSC[C@@H](C(=O)N[C@@H](Cc3ccc(O)cc3)C(=O)O)NC(=O)[C@H](CCCCN)NC(=O)[C@@H]3CSSC[C@H](NC(=O)[C@H](CCC(N)=O)NC(=O)[C@H](CCSC)NC(=O)[C@H](CC(=O)O)NC(=O)[C@H](CC(=O)O)NC(=O)[C@H](CCC(=O)O)NC(=O)[C@H](CC(=O)O)NC(=O)[C@H](Cc4c[nH]c5ccccc45)NC(=O)[C@@H]4CCCN4C(=O)CNC(=O)[C@H](CC(N)=O)NC(=O)[C@@H](NC(=O)CNC(=O)[C@H](Cc4ccccc4)NC(=O)CN)CSSC[C@H](NC(=O)[C@H](Cc4ccccc4)NC(=O)CNC(=O)CNC(=O)[C@H](CCCCN)NC(=O)[C@H](Cc4ccc(O)cc4)NC(=O)CNC(=O)[C@H](CCCCN)NC1=O)C(=O)N[C@@H](C)C(=O)N[C@@H](CCCCN)C(=O)NCC(=O)NCC(=O)N[C@@H](Cc1ccccc1)C(=O)N[C@@H](C(C)C)C(=O)N3)C(=O)N[C@@H](Cc1c[nH]cn1)C(=O)N[C@@H](CC(N)=O)C(=O)N[C@@H](Cc1c[nH]cn1)C(=O)N2 [Y29F] (H-GFGCNGPWDEDDMQCHNHCKSIKGYKGGFCAKGGFVCKCY-OH; disulfide 4-30, 15-37, 19-39 (inferred); N-terminus and C-terminus assumed)	≤ 0.78 µg/mL	1,56 μg/mL	–	–	–	–
